The values below come from patent US11203591B2, “Substituted 6-azabenzimidazole compounds” (Gilead Sciences, Inc., priority 2018, dated 2021).

Chain of human HPK1 (MAP4K1) (Q92918 17-274): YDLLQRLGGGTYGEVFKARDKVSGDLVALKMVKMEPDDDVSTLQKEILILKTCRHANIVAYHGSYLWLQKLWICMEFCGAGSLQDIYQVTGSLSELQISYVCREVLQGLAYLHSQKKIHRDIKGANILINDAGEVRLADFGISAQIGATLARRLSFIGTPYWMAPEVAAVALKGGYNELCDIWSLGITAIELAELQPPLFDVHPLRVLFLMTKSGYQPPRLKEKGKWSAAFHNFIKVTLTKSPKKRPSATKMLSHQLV

One test deals with human HPK1 (MAP4K1) (Homo sapiens (Human), UniProt Q92918). Briefly: HPK1 IC50 Assay (TR-FRET peptide phosphorylation). Type of test: biochemical. The conditions noted are these: 0.15 nM HPK1, 10 μM ATP, 1 μM STK S1 peptide substrate; geometric mean. In short, it runs like this:
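Readout: TR-FRET (665 nm/620 nm) after EDTA stop, detecting STK S1 peptide (1 μM) phosphorylation by 0.15 nM HPK1 kinase domain, ATP-pre-activated, at 10 μM ATP over 3 h, 25° C, pH 7.0. IC50s from four-parameter variable-slope fits, normalized to staurosporine and DMSO, averaged geometrically.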
(In general: In TR-FRET formats the signal depends on donor and acceptor labels being close together.)
Consider `CCNC(=O)c1cc(Nc2nc(-c3cc4c(nc3F)C(C)(C)C(=O)N4[C@H]3C[C@@](C)(N4CCCCC4)C3)cc3ncn(C(C)C)c23)c(F)c(F)c1Cl` [Example 273, 2-chloro-N-ethyl-3,4-difluoro-5-((6-(5-fluoro-3,3-dimethyl-1-((1s,3s)-3-methyl-3-(piperidin-1-yl)cyclobutyl)-2-oxo-2,3-dihydro-1H-pyrrolo[3,2-b]pyridin-6-yl)-3-isopropyl-3H-imidazo[4,5-c]pyridin-4-yl)amino)benzamide], for which the IC50 was 0.07 nM.

Still in this test, the particulars now being: recombinant HPK1 kinase domain 0.15 nM, 10 μM ATP, 1 μM STK S1 peptide; geometric mean of multiple experiments.
Take `Cc1ccc(Nc2nc(-c3ccc4c(c3)N([C@H]3C[C@@H](N5CCCCC5)C3)C(=O)C43CCN(C4COC4)CC3)cc3ncn(C(C)C)c23)cc1C(=O)NC(C)C` [Example 73]: the IC50 was 0.1 nM.

Consider `CCNC(=O)c1cc(Nc2nc(-c3ccc4c(c3)N([C@H]3C[C@@H](N5CCCCC5)C3)C(=O)C43CCN(C(C)=O)CC3)cc3ncn(C(C)C)c23)c(F)cc1C` [Example 74], for which the half-maximal inhibitory concentration (IC50) amounted to 0.2 nM.

For the compound `Cc1cc(F)c(Nc2nc(-c3ccc4c(c3)N([C@H]3C[C@@](C)(N5CCCCC5)C3)C(=O)C4(C)C)cc3ncn(C(C)C)c23)cc1C(=O)NC1(C(F)F)CC1` [Example 235, N-(1-(difluoromethyl)cyclopropyl)-5-((6-(3,3-dimethyl-1-((1s,3s)-3-methyl-3-(piperidin-1-yl)cyclobutyl)-2-oxoindolin-6-yl)-3-isopropyl-3H-imidazo[4,5-c]pyridin-4-yl)amino)-4-fluoro-2-methylbenzamide], the IC50 worked out at 0.1 nM.

For the compound `CNC(=O)c1cc(Nc2nc(-c3ccc4c(c3)N([C@H]3C[C@@H](N5CCCCC5)C3)C(=O)C43CCN(C(=O)C4(C)CCC4)CC3)cc3ncn(C4CC4)c23)ccc1C` [Example 149], the IC50 came out at 0.1 nM.

In the case of `Cc1cc(F)c(Nc2nc(-c3cnc4c(c3)N([C@H]3C[C@@](C)(N5CCCCC5)C3)C(=O)C43CCOCC3)cc3ncn(C(C)C)c23)cc1C(=O)NC1(C(F)F)CC1` [Example 206, N-(1-(Difluoromethyl)cyclopropyl)-4-fluoro-5-((3-isopropyl-6-(1′-((1s,3s)-3-methyl-3-(piperidin-1-yl)cyclobutyl)-2′-oxo-1′,2,2′,3,5,6-hexahydrospiro[pyran-4,3′-pyrrolo[3,2-b]pyridin]-6′-yl)-3H-imidazo[4,5-c]pyridin-4-yl)amino)-2-methylbenzamide], the IC50 was 0.07 nM.

`CCNC(=O)c1cc(Nc2nc(-c3cnc4c(c3)N(C3CC(C)(N5CCC6C[C@@H]6C5)C3)C(=O)C4(C)C)cc3ncn(C(C)C)c23)c(F)c(F)c1Cl` (stereo partly drawn) [Example 252, 5-((6-(1-((1s,3s)-3-(3-azabicyclo[4.1.0]heptan-3-yl)-3-methylcyclobutyl)-3,3-dimethyl-2-oxo-2,3-dihydro-1H-pyrrolo[3,2-b]pyridin-6-yl)-3-isopropyl-3H-imidazo[4,5-c]pyridin-4-yl)amino)-2-chloro-N-ethyl-3,4-difluorobenzamide]: the 50% inhibitory concentration (IC50) was found to be 0.05 nM.

As for `Cc1cc(F)c(Nc2nc(-c3ccc4c(c3)N([C@H]3C[C@@H](N5CCCCC5)C3)C(=O)C4(C)C)cc3ncn(C(C)C)c23)cc1C(=O)NC(C)C` [Example 176], the IC50 turned out to be 0.2 nM.

In the case of `CNC(=O)c1cc(Nc2nc(-c3ccc4c(c3)N([C@H]3C[C@@H](N5CCCCC5)C3)C(=O)C43CCOCC3)cc3ncn(C(C)C)c23)ccc1C` [Example 123], the IC50 came out at 0.1 nM.

Take `CC(=O)N1CCC2(CC1)C(=O)N([C@H]1C[C@@H](N3CCCCC3)C1)c1cc(-c3cc4ncn(C(C)C)c4c(Nc4cc(C(=O)NC(C)(C)C)c(C)cc4F)n3)ccc12` [Example 59]: the IC50 stood at 0.3 nM.

As to `CNC(=O)c1cc(Nc2nc(-c3ccc4c(c3)N([C@H]3C[C@@H](N5CC[C@@H](F)C5)C3)C(=O)C4(C)C)cc3ncn(C(C)C)c23)c(F)cc1C` [Example 108], the IC50 is 0.1 nM.

On to `Cc1cc(F)c(Nc2nc(-c3ccc4c(c3)N([C@H]3C[C@@H](N5CCC[C@@H](F)C5)C3)C(=O)C43CCN(C4COC4)CC3)cc3ncn(C(C)C)c23)cc1C(=O)NC(C)C` [Example 172], for which the IC50 was 0.3 nM.

What is called IC50 is the concentration that inhibits the measured activity by half.
